What was measured:
[1] = system: mouse myoblasts (C2C12) myotubes; assay: C2C12 myotube atrophy induced by C26 cell culture medium (HE staining, myotube diameter); type: cell-based; conditions: for Myotube atrophy reversal rate (%): 48 h
Text: Carbamo(dithioperoxo)thioate analogs alleviate mouse myoblasts (C2C12) atrophy induced by mouse colon cancer cell (C26).
The diameter measurement method was used to evaluate the diameter of myotubes differentiated from mouse myoblasts (C2C12). The staining method used in the experiment was hematoxylin-eosin staining, referred to as HE staining. The hematoxylin stain is alkaline, positively charged, and easily binds to negatively charged and acidic deoxyribonucleic acid (DNA) in the nucleus with ionic bonding to show blue; while eosin is an acidic dye that dissociates into negatively charged anions in water and easily binds to the positively charged amino groups of proteins in the cytoplasm to show red. The stained cells were placed under a high-magnification microscope to take photos (magnification power: 400), and the diameter of myotubes could be counted using image J software.
The above method allows to evaluate the effect of the drug on the muscle atrophy cell model. The specific method is as follows.
C2C12 cells were seeded in 24-well plates in a culture medium of high-glucose DMEM medium containing 10% FBS and 1% P/S, and placed in a 5% CO2, 37° C. environment. When the cell density reaches 50%˜60%, the culture medium was changed into 2% HS differentiation medium (high-glucose DMEM medium containing 2% HS and 1% P/S); the differentiation medium was changed every 48 h until mature on day 5 or day 6. In addition, C26 cells were inoculated in T75 flasks, and the culture medium was changed into high-glucose DMEM medium containing 10% FBS and 1% P/S, and placed in a 5% CO2, 37° C. environment. While C26 cells (6×10^6 cells/flasks) were passaged, add 20 mL of culture medium to sequentially subculture for 48 h. To obtain the C26 supernatant, centrifuge C26 culture medium at 1000 rpm for 3 min and then at 4000 rpm for 10 min successively. The C26 supermatant and 2% HS differentiation medium were mixed 1:1 (volume ratio) as a muscle atrophy inducing medium. Except for the control group with 2% HS differentiation medium, other each group was added with the equal amounts of muscle atrophy-inducing medium and one group was used as the model group, and the rest groups were used as the experimental groups for drug administration. At the same time, carbamo(dithioperoxo)thioate compounds were added into the cells at the following gradient concentrations.
Wherein, the serial numbers correspond to the numbers of the accompanying figures, that is, FIG. 1-46 correspond to the samples of serial numbers 1-46 in Table 1. μM refers to μmol/L.
Myotube diameter was measured as follows.
After 48 h of action, the myotubes were fixed with fixative solution (anhydrous ethanol:formaldehyde:glacial acetic acid volume ratio=20:2:1) for more than 1 h, stained using hematoxylin-eosin staining method, and placed under a high-magnification microscope to acquire images and counted the diameter of myotubes using image J. The muscle atrophy reversal rate was calculated according to the following equation. Muscle atrophy reversal rate=(Average value of myotubes in drug administration group−Average value of myotubes in model group)/(Average value of myotubes in control group−Average value of myotubes in model group)×100%

[2] = system: 3T3-L1 adipocytes; assay: 3T3-L1 adipocyte lipolysis induced by C26 medium (glycerol assay); type: cell-based, mouse; conditions: for glycerol content: 48 h, control 287.44 μM, model 441.95 μM
Text: Experimental results of compound 4 alleviating 3T3-L1 adipocytes lipolysis.
Glycerol assay was used to evaluate intracellular lipid content. Glycerol kinase phosphorylates glycerol to glycerol 3-phosphate; glycerol 3-phosphate is oxidized by glycerophosphate oxidase to produce hydrogen peroxide; the chromogenic substrate is converted to benzoquinone imine in the presence of peroxidase, and its optical density value is proportional to the glycerol concentration.
The above methods allow to evaluate the effect of drugs on the fat lipolysis cell model. The methods are as follows:
3T3-L1 cells were seeded in 6-well plates in a culture medium (high-glucose DMEM medium containing 10% FBS and 1% P/S) and placed in a 5% CO2, 37° C. environment. The cells were allowed to grow to 100% confluence and continued to fuse for 3 days to start the differentiation operation. The culture medium for the first differentiation was high-glucose DMEM medium containing 0.5 mM IBMX, […], 1 μM dexamethasone and 10% FBS and 1% P/S, and then differentiated 3T3-L1 adipocytes for 72 h; The culture medium for the second differentiation was high-glucose DMEM medium containing […] and 10% FBS, and 1% P/S, and then differentiated 3T3-L1 adipocytes for 72 h; the culture medium for the third differentiation was high-glucose DMEM medium containing 10% FBS, and 1% P/S, and then differentiated 3T3-L1 for 72 h; After successful differentiation, it was obvious that there were a large number of oil droplets in the cells. In addition, C26 cells were inoculated in T75 flasks in the culture medium (high-glucose DMEM medium containing 10% FBS, and 1% P/S) and placed in a 5% CO2, 37° C. environment. While C26 cells (6×10^6 cells/flask) were passaged, add 15 mL of phenol red-free high-glucose DMEM culture medium to the T75 flask with 100% confluent C26 cells and sequentially subculture for 48 h. To obtain the supernatant, centrifuge C26 culture medium at 1000 rpm for 3 min and at 4000 rpm for 10 min successively, and take the supernatant to obtain the C26 supernatant successively. The C26 supernatant was mixed with phenol red-free high-glucose DMEM medium at 1:1 ratio as a fat lipolysis-inducing medium. Except for the control group with phenol red-free high-glucose DMEM medium, the other each group was added with the same amount of fat lipolysis-inducing liquid; one group was used as the model group, and the rest groups were used as the experimental groups for drug administration. At the same time, compound 4 stock solution was also added into the cells at the following concentrations of 12.5 μM, 25 μM, 50 μM, 100 μM.
The glycerol detection method was performed as follows: after 48 h of action, the glycerol content in the supernatant was detected using the glycerol detection kit from Beijing Applygen Gene Technology Co., Ltd.

[3] = system: BALB/c mice bearing C26 tumors; assay: C26 tumor cancer cachexia animal model; type: in vivo, mouse; conditions: 5 mg/kg oral gavage (i.g)
Method: The experimental results of cancer cachexia animal models treated with compound 4, by the following methods.
C26 cells were cultured in T75 culture flasks in the culture medium (RPMI-1640 medium containing 10% FBS, and P/S) and placed in a 5% CO2, 37° C. environment. The cells were harvested by centrifugation at 1000 rpm for 3 min, and washed with ice-cold PBS buffer to remove the remaining culture medium and prepared into a cell suspension of 1×10^7 cells/mL. The cell suspension was inoculated into the left and right armpits of BALB/c mice with 1×10^6 cells/mouse for subsequent inoculation. When the tumor volume increased to about […], the tumor was removed and homogenized at 3.5 mL of ice-old saline/g to obtain tumor tissue suspension. The mice to be inoculated were grouped according to their body weight, and the cell suspension was inoculated into the left armpit of BALB/c mice at the amount of 100 μL/mouse. The administration of the drug was started the day after inoculation. Compound 4 was first dissolved in DMSO and then mixed with pre-warmed PBS solution (37° C.) to form a homogeneous and stable solution at a final concentration of 1 mg/mL (3% DMSO+2% anhydrous ethanol+1% polyoxyethylene castor oil). The dose was 5 mg/kg and the route of administration was oral gavage (i.g). The body weight, body temperature, tumor size and food intake of the mice were monitored daily. The mice in the model group were considered to be in the advanced stage of cachexia when they were about 10% weight loss after 16 days. The muscle grip of mice's limbs was measured, and samples of gastrocnemius muscle, epididymal fat and tumor were obtained after the mice were executed by […] and the tissue samples were weighed.
The measurement method of the muscle grasping force is as follows: The researcher holds the mouse steadily with his right hand, puts the mouse on the “YLS-13A rat and mouse grasping force measuring instrument” to let the forelimbs of mouse firmly grasp the grasping plate and uses his left hand to stabilize the grasping plate. To measure the muscle grasping force of the mouse, the researcher slowly releases his left hand from the grasping plate and immediately uses his right hand to pull the mouse's tail backward slowly until the forelimbs are free from the grasping plate. Each mouse is repeated 8 times, and the average value of the 8 times is used as the skeletal muscle strength index of each mouse.
Results and Conclusions: Referring to FIGS. 48 to 58, the three curves in the figures represent the healthy group, the C26 tumor model group and the dosing group (compound 4 group, where compound 4 was administrated at a dose of 5 mg/kg), respectively.

[4] = 25 μM, C26 medium-induced C2C12 myotubes
[5] = 50 μM, C26 medium-induced C2C12 myotubes
[6] = l00 μM, C26 medium-induced C2C12 myotubes
[7] = 12.5 μM, C26 medium-induced C2C12 myotubes
[8] = vs C26 tumor model group, p<0.05

Compound	Myotube atrophy reversal rate (%) [1, 4]	Myotube atrophy reversal rate (%) [1, 5]	Myotube atrophy reversal rate (%) [1, 6] [%]	further results
CCCCCCCCSSC(=S)N1CCCC1 [Compound 1]	18.39%	2.51%	36.26	–
CCCCCCCCCCSSC(=S)N1CCCC1 [Compound 2]	43.90% (25 μM)	61.05% (50 μM)	–	Myotube atrophy reversal rate (%) [1, 7]: 16.94%
CCCCCCCCCCCSSC(=S)N1CCCC1 [Compound 3]	35.76%	33.40%	46.11	–
CCCCCCCCCCCCSSC(=S)N1CCCC1 [Compound 4]	–	–	–	Myotube atrophy reversal rate (%) ([1]; 3.125 μM, C26 medium-induced C2C12 myotubes): 37.78%; Myotube atrophy reversal rate (%) ([1]; 6.25 μM, C26 medium-induced C2C12 myotubes): 54.53%; cytotoxicity (in words) ([1]; 12.5 μM): non-cytotoxic; Myotube atrophy reversal rate (%) [1, 7]: 92.83%; Myotube atrophy reversal rate (%) ([1]; 12.5 μM, C26 medium-induced C2C12 myotubes, listed as compound 4): 92.83%; glycerol content ([2]; 12.5 μM compound): 379.44 µM; glycerol content ([2]; 25 μM compound): 347.14 µM; glycerol content ([2]; 50 μM compound): 313.67 µM; glycerol content ([2]; 100 μM compound): 310.95 µM; glycerol released from 3T3-L1 mature adipocytes (in words) ([2]; 12.5-100 μM, C26 cell culture medium induced): concentration-dependent reduction; cancer cachexia symptoms (weight loss, muscle atrophy, fat loss, body temperature decrease) [3]: alleviate the weight loss, muscle atrophy, fat degradation and body temperature decrease; body weight with tumor vs C26 tumor model group ([3]; end of experiment, p<0.01): higher than those in the C26 tumor model group; body weight without tumor vs C26 tumor model group ([3]; end of experiment, p<0.01): higher than those in the C26 tumor model group; food intake ([3]; vs C26 tumor model group): higher food intake than the C26 tumor model group; tumor volume / growth of C26 tumors ([3]; vs C26 tumor model group): no significant inhibitory effect; epididymal fat mass [3, 8]: significantly increase the epididymal fat mass; gastrocnemius muscle mass [3, 8]: significantly alleviate gastrocnemius muscle atrophy; muscle grasping force [3, 8]: significantly enhance the muscle grasping force
CCCCCCCCCCCCCSSC(=S)N1CCCC1 [Compound 5]	23.27%	40.28%	–	–
CCCCCCCCCCCCCCSSC(=S)N1CCCC1 [Compound 6]	20.41%	35.98%	33.80	–
CCCCCCCCCCCCCCCCSSC(=S)N1CCCC1 [Compound 7]	41.05%	28.79%	43.99	–
CCCCCCCCCCCCCCCCCCSSC(=S)N1CCCC1 [Compound 8]	−1.83%	17.41%	6.10	reversal of myotube atrophy (activity in words) ([1]; C26 medium-induced C2C12 myotubes): lower
CCCCCCCCCCCCSSC(=S)N1Cc2ccccc2C1 [Compound 9]	12.22%	29.24%	60.06	–
CCCCCCCCCCCCSSC(=S)N1CCc2ccccc21 [Compound 10]	10.82%	25.32%	45.93	–
CCCCCCCCCCCCSSC(=S)N1CCC2(COC2)C1 [Compound 11]	42.30%	64.65%	–	–
CCCCCCCCCCCCSSC(=S)N1CC2CCCCC2C1 (stereo not drawn) [Compound 12]	20.85%	49.43%	66.73	–
CCCCCCCCCCCCSSC(=S)N1CCC(O)C1 (stereo not drawn) [Compound 13]	18.05%	42.38%	–	–
CCCCCCCCCCCCSSC(=S)N1CCCCC1 [Compound 14]	17.02%	43.19%	–	–
CCCCCCCCCCCCSSC(=S)N1CCOCC1 [Compound 15]	26.47%	48.24%	–	–
CCCCCCCCCCCCSSC(=S)N1CCN(C)CC1 [Compound 16]	31.39%	46.75%	–	–
CCCCCCCCCCCCSSC(=S)N1CCC1 [Compound 17]	26.34%	53.97%	–	–

— patent US12269808B2, “Amino dithioperacid thioester compound, preparation method therefor, and use thereof” (FUDAN UNIVERSITY, priority 2019, dated 2025)
